Source: patent publication US20100311683A1, “CYTIDINE ANALOGS FOR TREATMENT OF MYELODYSPLASTIC SYNDROMES” (priority 2007, published 2010)

What was measured:
[1] = test system: high-risk MDS patients with -7/del(7q); test: AZA-001 subgroup analysis: patients with -7/del(7q); assay type: in vivo, human
[2] = test system: patients ≥60 years with AML
MDS patients = conditions: pivotal CALGB study, approved Aza dose regimen subcutaneously; cited from earlier work

Nc1ncn([C@@H]2O[C@H](CO)[C@@H](O)[C@H]2O)c(=O)n1 [azacitidine, 4-amino-1-β-D-ribofuranosyl-1,3,5-triazin-2(1H)-one]
IWG 2000 response rate (CR+PR) ([1]; -7/del(7q) alone): 64% | IWG 2000 response rate (CR+PR) ([1]; -7/del(7q) as part of complex karyotype): 21% | CR ([1]; -7/del(7q) patients): 8/30, 27% | CR + PR ([1]; -7/del(7q) patients): 13/30, 43% | HI-E ([1]; -7/del(7q) patients): 13/26, 50% | HI-P ([1]; -7/del(7q) patients): 10/20, 50% | RBC TI (transfusion independence) ([1]; RBC-dependent -7/del(7q) patients at BL): 12/21, 57% | OS advantage at 2 years vs CCR ([1]; patients with -7/del(7q)): 4 fold | hazard ratio for overall survival, azacitidine vs CCR ([1]; patients with -7/del(7q)): 0.33 | improvement in OS over CCR ([1]; patients with -7/del(7q)): 3 fold | median Kaplan Meier difference in OS, AZA vs CCR ([1]; patients with -7/del(7q)): 8.4 months | patients alive at 2 years ([1]; patients with -7/del(7q)): 33% | reduced risk of death vs CCR ([1]; patients with -7/del(7q)): 67% | tolerability ([1]; patients with -7/del(7q)): generally well tolerated | median Kaplan-Meier overall survival ([1]; patients with -7/del(7q), azacitidine n=30): 13.1 months | fatigue ([2]; 5/8): 63% | mild injection site skin reaction ([2]; 5/8): 63% | mean overall survival time from diagnosis ([2]; all patients): 180 days | overall response rate ([2]; azacitidine 100 mg/m2 SC 5 days every 28 days, 6/8 patients): 75% | mean number of days hospitalized during therapy ([2]; in vivo): 18 days | treatment related deaths ([2]; in vivo): No treatment related deaths were observed | complete response (CR) ([2]; n=2 of 8): 25% | partial response (PR) ([2]; n=4 of 8): 50% | mean overall survival time ([2]; responders): 200 days | responders who became independent of RBC transfusion ([2]; two of the six responders): 33% | baseline RBC transfusion dependent patients who achieved transfusion independence (MDS patients): 45%
